Converted amounts (≈) assume the structure as drawn. Like-named read-outs stand apart in the source and are kept apart here. Numbered stars: 1 amine (or outer) side, 2 acyl side, 3 side chain; on linkers, the order of the positions; unused ones are H or OH. Square brackets hold non-standard residues; d marks the D form. Peptide text beside a SMILES is read from it. ξ: configuration not given here. X13 = CN([C@@H](Cc1cccc(-c2ccc(N3CCN(C(=O)OC(C)(C)C)CC3)nc2)c1)C(=O)[*:2])[*:1]; X21 = CC1CCN(c2cc(-c3cccc(C[C@@H](C(=O)[*:2])N(C)[*:1])c3)ccn2)CC1; X15 = CN([C@@H](Cc1cccc(-c2ccc(N3CCOCC3)nc2)c1)C(=O)[*:2])[*:1]; X24 = CN([C@@H](Cc1cccc(-c2ccnc(N3CCOCC3)c2)c1)C(=O)[*:2])[*:1]; X12 = CN(C)c1cc(-c2cccc(C[C@@H](C(=O)[*:2])N(C)[*:1])c2)ccn1; X14 = CN([C@@H](Cc1cccc(-c2ccc3ncccc3c2)c1)C(=O)[*:2])[*:1]; X17 = CN([C@@H](Cc1cccc(-c2cnc3ccccc3c2)c1)C(=O)[*:2])[*:1]; Hmp(2R,3S) = CC[C@H](C)[C@@H](O)C(=O)O; NMeVal(β-OH) = CN[C@H](C(=O)O)C(C)(C)O; X6 = CCC(C)[C@@H](O[*:1])C(=O)[*:2]; Ile(3ξ) = CCC(C)[C@H](N)C(=O)O; NMeV = CN[C@H](C(=O)O)C(C)C
Tests used:
[1] = tested on: C. albicans MMX 2000 ATCC 10231; test: MIC assay (CLSI microdilution); format: cell-based; details: Candida albicans, ATCC10231, RPMI plus 0.002% Tween-80; read-out: MIC
[2] = tested on: C. neoformans MMX 0634 ATCC 90112; test: MIC assay (CLSI microdilution); format: cell-based; details: Cryptococcus neoformans, ATCC90112, RPMI plus 0.002% Tween-80; read-out: MIC
[3] = tested on: C. parapsilosis MMX 2323 ATCC 22019; test: MIC assay (CLSI microdilution); format: cell-based, Candida parapsilosis; details: read-out: MIC
Method in brief: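 Broth microdilution MIC testing of Candida parapsilosis ATCC 22019 followed CLSI methods in RPMI-1640, with or without 0.002% Tween-80. Yeast grown 48 hours at 35° C on Sabouraud dextrose agar was suspended to a 0.5 McFarland standard and diluted 1:100 to roughly 0.5-2.5×10^3 CFU/mL. The MIC was the lowest concentration preventing visible growth.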

A. flavus MMX 5948 = test: MIC/MEC assay (CLSI microdilution); format: cell-based; details: Aspergillus flavus, MMX5948, 48 h; for minimal effective concentration: RPMI plus 0.002% Tween-80; for MIC: RPMI plus 0.002% Tween-80, read-out: MIC
Method in brief: (§1)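 Broth microdilution per CLSI in RPMI-1640 with 0.002% Tween-80; MMX 5280 also run without Tween-80. Test compounds serially diluted two-fold in 95% ethanol, amphotericin B in DMSO (0.06-64 μg/mL). Aspergillus spore inoculum gave approximately 0.2-2.5×10^4 CFU/mL final.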

A. fumigatus MMX 5944 = test: MIC/MEC assay (CLSI microdilution); format: cell-based; details: Aspergillus fumigatus, MMX5944, 48 h; for minimal effective concentration: RPMI plus 0.002% Tween-80; for MIC: RPMI plus 0.002% Tween-80, read-out: MIC
Method in brief: as §1

[4] = tested on: A. fumigatus MMX 6781 ATCC MYA-4609; test: MIC/MEC assay (CLSI microdilution); format: cell-based; details: Aspergillus fumigatus; for MIC: 48 h, RPMI plus 0.002% Tween-80, read-out: MIC; for minimal effective concentration: RPMI plus 0.002% Tween-80, 48 hr
Method in brief: as §1

[5] = tested on: A. fumigatus MMX 6782 ATCC 13073; test: MIC/MEC assay (CLSI microdilution); format: cell-based; details: Aspergillus fumigatus, ATCC13073, 48 h; for MIC: RPMI plus 0.002% Tween-80, read-out: MIC; for minimal effective concentration: RPMI plus 0.002% Tween-80, read-out: MEC
Method in brief: as §1

[6] = tested on: A. fumigatus from Aureogen; test: MIC/MEC assay (CLSI microdilution); format: cell-based; details: Aspergillus fumigatus, 48 h; for minimal effective concentration: RPMI plus 0.002% Tween-80; for MIC: RPMI plus 0.002% Tween-80, read-out: MIC
Method in brief: as §1

[7] = tested on: A. niger MMX 0624 ATCC 16888; test: MIC/MEC assay (CLSI microdilution); format: cell-based; details: for minimal effective concentration: RPMI plus 0.002% Tween-80, read-out: MEC
Method in brief: as §1

[8] = tested on: A. fumigatus MMX 5280 ATCC MYA-3626; test: MIC/MEC assay (CLSI microdilution); format: cell-based, Aspergillus fumigatus; details: Aspergillus fumigatus, 48 h
Method in brief: as §1

[9] = ATCC22019, RPMI plus 0.002% Tween-80
[10] = Aspergillus niger, ATCC16888, 48 h
[11] = Aspergillus niger, ATCC16888, 48 h, RPMI plus 0.002% Tween-80, read-out: MIC
[12] = RPMI plus 0.002% Tween-80, read-out: MEC
[13] = RPMI plus 0.002% Tween-80, read-out: MIC
[14] = Without Tween-80, read-out: MEC
[15] = Without Tween-80, read-out: MIC
[16] = RPMI plus 0.002% Tween-80, 48 hr

| SMILES | MIC [1] [µg/mL] | MIC [2] [µg/mL] | MIC [3, 9] [µg/mL] | MIC ([3]; ATCC22019, Without Tween-80) [µg/mL] | minimal effective concentration (A. flavus MMX 5948) [µg/mL] | MIC (A. flavus MMX 5948) [µg/mL] | minimal effective concentration (A. fumigatus MMX 5944) [µg/mL] | MIC (A. fumigatus MMX 5944) [µg/mL] | MIC [4] [µg/mL] | minimal effective concentration [4] [µg/mL] | MIC [5] [µg/mL] | minimal effective concentration [6] [µg/mL] | MIC [6] [µg/mL] | minimal effective concentration [7, 10] [µg/mL] | MIC [7, 11] [µg/mL] | minimal effective concentration [8, 12] [µg/mL] | MIC [8, 13] [µg/mL] | minimal effective concentration [8, 14] [µg/mL] | MIC [8, 15] [µg/mL] | minimal effective concentration [5] [µg/mL] | other results |
| --- | --- | --- | --- | --- | --- | --- | --- | --- | --- | --- | --- | --- | --- | --- | --- | --- | --- | --- | --- | --- | --- |
| CCC(C)[C@@H]1NC(=O)[C@@H]2CCCN2C(=O)[C@H](Cc2cccc(-c3ccc4ncccc4c3)c2)N(C)C(=O)[C@H](Cc2ccccc2)NC(=O)[C@H](C(C)C)N(C)C(=O)[C@@H](C(C)CC)OC(=O)[C@H](C(C)(C)O)N(C)C(=O)[C@H](CC(C)C)NC(=O)[C@H](C(C)C)N(C)C1=O (stereo partly drawn) [Compound 18] (cyclo(F[X14]P[Ile(3ξ)][NMeV]L[NMeVal(β-OH)][X6][NMeV])) | 0.03 | 0.25 | 0.12 | 1 (≈ 0.814 µM) | 0.25 | 0.5 | > 64 | > 64 | > 64 | > 64 | > 64 | > 64 | > 64 | 0.06 | 0.25 | > 64 | > 64 | > 64 | > 64 |  |  |
| CC[C@H](C)[C@@H]1NC(=O)[C@@H]2CCCN2C(=O)[C@H](Cc2cccc(-c3ccnc(N4CCOCC4)c3)c2)N(C)C(=O)[C@H](Cc2ccccc2)NC(=O)[C@H](C(C)C)N(C)C(=O)[C@@H]([C@@H](C)CC)OC(=O)[C@H](C(C)(C)O)N(C)C(=O)[C@H](CC(C)C)NC(=O)[C@H](C(C)C)N(C)C1=O [Compound 21] (cyclo(F[X24]PI[NMeV]L[NMeVal(β-OH)][Hmp(2R,3S)][NMeV])) | 0.015 | 0.25 | 0.06 | 1 (≈ 0.791 µM) | 0.25 | > 64 | > 64 | > 64 | > 64 | > 64 | > 64 | > 64 | > 64 | 0.06 | 0.25 | > 64 | > 64 | > 64 | > 64 | > 64 |  |
| CC[C@H](C)[C@@H]1NC(=O)[C@@H]2CCCN2C(=O)[C@H](Cc2cccc(-c3ccnc(N(C)C)c3)c2)N(C)C(=O)[C@H](Cc2ccccc2)NC(=O)[C@H](C(C)C)N(C)C(=O)[C@@H]([C@@H](C)CC)OC(=O)[C@H](C(C)(C)O)N(C)C(=O)[C@H](CC(C)C)NC(=O)[C@H](C(C)C)N(C)C1=O [Compound 22] (cyclo(F[X12]PI[NMeV]L[NMeVal(β-OH)][Hmp(2R,3S)][NMeV])) | 0.03 | 0.25 | 0.06 | 1 (≈ 0.819 µM) | > 64 | > 64 | > 64 | > 64 | > 64 | > 64 | > 64 | > 64 | > 64 | 0.25 | 0.5 | > 64 | > 64 | > 64 | > 64 | > 64 |  |
| CC[C@H](C)[C@@H]1NC(=O)[C@@H]2CCCN2C(=O)[C@H](Cc2cccc(-c3ccnc(N4CCC(C)CC4)c3)c2)N(C)C(=O)[C@H](Cc2ccccc2)NC(=O)[C@H](C(C)C)N(C)C(=O)[C@@H]([C@@H](C)CC)OC(=O)[C@H](C(C)(C)O)N(C)C(=O)[C@H](CC(C)C)NC(=O)[C@H](C(C)C)N(C)C1=O [Compound 23] (cyclo(F[X21]PI[NMeV]L[NMeVal(β-OH)][Hmp(2R,3S)][NMeV])) | 0.06 | 0.25 | 0.12 | 1 (≈ 0.784 µM) | > 64 | > 64 | > 64 | > 64 | > 64 | > 64 | > 64 | > 64 | > 64 | 0.12 | 0.25 | > 64 | > 64 | > 64 | > 64 | > 64 |  |
| CC[C@H](C)[C@@H]1NC(=O)[C@@H]2CCCN2C(=O)[C@H](Cc2cccc(-c3ccc(N4CCOCC4)nc3)c2)N(C)C(=O)[C@H](Cc2ccccc2)NC(=O)[C@H](C(C)C)N(C)C(=O)[C@@H]([C@@H](C)CC)OC(=O)[C@H](C(C)(C)O)N(C)C(=O)[C@H](CC(C)C)NC(=O)[C@H](C(C)C)N(C)C1=O [Compound 24] (cyclo(F[X15]PI[NMeV]L[NMeVal(β-OH)][Hmp(2R,3S)][NMeV])) | 0.03 | 0.5 | 0.12 | 1 (≈ 0.791 µM) | 0.25 | 0.5 | > 64 | > 64 | > 64 | > 64 | > 64 | > 64 | > 64 | 0.25 | 0.25 | > 64 | > 64 | > 64 | > 64 | > 64 |  |
| CC[C@H](C)[C@@H]1NC(=O)[C@@H]2CCCN2C(=O)[C@H](Cc2cccc(-c3ccc(N4CCN(C(=O)OC(C)(C)C)CC4)nc3)c2)N(C)C(=O)[C@H](Cc2ccccc2)NC(=O)[C@H](C(C)C)N(C)C(=O)[C@@H]([C@@H](C)CC)OC(=O)[C@H](C(C)(C)O)N(C)C(=O)[C@H](CC(C)C)NC(=O)[C@H](C(C)C)N(C)C1=O [Compound 26] (cyclo(F[X13]PI[NMeV]L[NMeVal(β-OH)][Hmp(2R,3S)][NMeV])) | 0.12 | 0.25 | 1 | 2 (≈ 1.47 µM) | > 64 | > 64 | > 64 | > 64 | > 64 | > 64 | > 64 | > 64 | > 64 |  |  | > 64 | > 64 | > 64 | > 64 | > 64 | MEC [7, 16]: 2/2 μg/mL; MIC [7, 16]: 2/2 μg/mL |
| CC[C@H](C)[C@@H]1NC(=O)[C@@H]2CCCN2C(=O)[C@H](Cc2cccc(-c3cnc4ccccc4c3)c2)N(C)C(=O)[C@H](Cc2ccccc2)NC(=O)[C@H](C(C)C)N(C)C(=O)[C@@H]([C@@H](C)CC)OC(=O)[C@H](C(C)(C)O)N(C)C(=O)[C@H](CC(C)C)NC(=O)[C@H](C(C)C)N(C)C1=O [Compound 27] (cyclo(F[X17]PI[NMeV]L[NMeVal(β-OH)][Hmp(2R,3S)][NMeV])) | 0.015 | 0.12 | 0.12 | 1 (≈ 0.814 µM) | 0.12 | 0.5 | > 64 | > 64 | > 64 | > 64 | > 64 | > 64 | > 64 | 0.06 | 0.06 | > 64 | > 64 | > 64 | > 64 | > 64 |  |

— patent US11066447B2, “Aureobasidium derivatives and methods of synthesis” (AureoGen Biosciences, Inc., priority 2016, dated 2021)
